Patent US12187742B2 (XRAD Therapeutics, Inc., priority 2018, dated 2025)
Where a name gives a salt, the structure may show the parent alone.

Legend:
ATM = ATM (Homo sapiens (Human), UniProt Q13315); assay: ATM in Cell Western Assay (pKAP1 in etoposide-treated MCF-7 cells); format: cell-based
How it was run: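 Cells received compounds in a 10-dose, 3-fold series from a 1 μM final top concentration, then 100 μM etoposide, for 1 hr at 37° C. They were then fixed with paraformaldehyde and permeabilized with 0.1% Triton X-100. After immunostaining, plates were scanned on an infrared imager.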

DNA-PK = DNA-PK (Homo sapiens (Human), UniProt P78527); assay: DNA-PK Enzyme-Linked Immunosorbent Assay (phosphorylation of GST-p53 (1-101) peptide); format: biochemical; details: ELISA
How it was run: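 ELISA with plate-bound GST-p53 (1-101) phosphorylated by DNA-PK (0.1 μg/mL final) with 20 μM ATP for 1 h at 25 °C. Compounds tested over 10 3-fold doses from 100 nM top final. Phospho-p53 Ser15 detected by antibody, HRP and TMB, absorbance at 450 nm.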

[1] = pKAP1 in etoposide-treated MCF-7 cells
[2] = MCF-7 cells, etoposide 100 μM, 1 hr, pKAP1 readout

Chain of ATM (Q13315 whole entry): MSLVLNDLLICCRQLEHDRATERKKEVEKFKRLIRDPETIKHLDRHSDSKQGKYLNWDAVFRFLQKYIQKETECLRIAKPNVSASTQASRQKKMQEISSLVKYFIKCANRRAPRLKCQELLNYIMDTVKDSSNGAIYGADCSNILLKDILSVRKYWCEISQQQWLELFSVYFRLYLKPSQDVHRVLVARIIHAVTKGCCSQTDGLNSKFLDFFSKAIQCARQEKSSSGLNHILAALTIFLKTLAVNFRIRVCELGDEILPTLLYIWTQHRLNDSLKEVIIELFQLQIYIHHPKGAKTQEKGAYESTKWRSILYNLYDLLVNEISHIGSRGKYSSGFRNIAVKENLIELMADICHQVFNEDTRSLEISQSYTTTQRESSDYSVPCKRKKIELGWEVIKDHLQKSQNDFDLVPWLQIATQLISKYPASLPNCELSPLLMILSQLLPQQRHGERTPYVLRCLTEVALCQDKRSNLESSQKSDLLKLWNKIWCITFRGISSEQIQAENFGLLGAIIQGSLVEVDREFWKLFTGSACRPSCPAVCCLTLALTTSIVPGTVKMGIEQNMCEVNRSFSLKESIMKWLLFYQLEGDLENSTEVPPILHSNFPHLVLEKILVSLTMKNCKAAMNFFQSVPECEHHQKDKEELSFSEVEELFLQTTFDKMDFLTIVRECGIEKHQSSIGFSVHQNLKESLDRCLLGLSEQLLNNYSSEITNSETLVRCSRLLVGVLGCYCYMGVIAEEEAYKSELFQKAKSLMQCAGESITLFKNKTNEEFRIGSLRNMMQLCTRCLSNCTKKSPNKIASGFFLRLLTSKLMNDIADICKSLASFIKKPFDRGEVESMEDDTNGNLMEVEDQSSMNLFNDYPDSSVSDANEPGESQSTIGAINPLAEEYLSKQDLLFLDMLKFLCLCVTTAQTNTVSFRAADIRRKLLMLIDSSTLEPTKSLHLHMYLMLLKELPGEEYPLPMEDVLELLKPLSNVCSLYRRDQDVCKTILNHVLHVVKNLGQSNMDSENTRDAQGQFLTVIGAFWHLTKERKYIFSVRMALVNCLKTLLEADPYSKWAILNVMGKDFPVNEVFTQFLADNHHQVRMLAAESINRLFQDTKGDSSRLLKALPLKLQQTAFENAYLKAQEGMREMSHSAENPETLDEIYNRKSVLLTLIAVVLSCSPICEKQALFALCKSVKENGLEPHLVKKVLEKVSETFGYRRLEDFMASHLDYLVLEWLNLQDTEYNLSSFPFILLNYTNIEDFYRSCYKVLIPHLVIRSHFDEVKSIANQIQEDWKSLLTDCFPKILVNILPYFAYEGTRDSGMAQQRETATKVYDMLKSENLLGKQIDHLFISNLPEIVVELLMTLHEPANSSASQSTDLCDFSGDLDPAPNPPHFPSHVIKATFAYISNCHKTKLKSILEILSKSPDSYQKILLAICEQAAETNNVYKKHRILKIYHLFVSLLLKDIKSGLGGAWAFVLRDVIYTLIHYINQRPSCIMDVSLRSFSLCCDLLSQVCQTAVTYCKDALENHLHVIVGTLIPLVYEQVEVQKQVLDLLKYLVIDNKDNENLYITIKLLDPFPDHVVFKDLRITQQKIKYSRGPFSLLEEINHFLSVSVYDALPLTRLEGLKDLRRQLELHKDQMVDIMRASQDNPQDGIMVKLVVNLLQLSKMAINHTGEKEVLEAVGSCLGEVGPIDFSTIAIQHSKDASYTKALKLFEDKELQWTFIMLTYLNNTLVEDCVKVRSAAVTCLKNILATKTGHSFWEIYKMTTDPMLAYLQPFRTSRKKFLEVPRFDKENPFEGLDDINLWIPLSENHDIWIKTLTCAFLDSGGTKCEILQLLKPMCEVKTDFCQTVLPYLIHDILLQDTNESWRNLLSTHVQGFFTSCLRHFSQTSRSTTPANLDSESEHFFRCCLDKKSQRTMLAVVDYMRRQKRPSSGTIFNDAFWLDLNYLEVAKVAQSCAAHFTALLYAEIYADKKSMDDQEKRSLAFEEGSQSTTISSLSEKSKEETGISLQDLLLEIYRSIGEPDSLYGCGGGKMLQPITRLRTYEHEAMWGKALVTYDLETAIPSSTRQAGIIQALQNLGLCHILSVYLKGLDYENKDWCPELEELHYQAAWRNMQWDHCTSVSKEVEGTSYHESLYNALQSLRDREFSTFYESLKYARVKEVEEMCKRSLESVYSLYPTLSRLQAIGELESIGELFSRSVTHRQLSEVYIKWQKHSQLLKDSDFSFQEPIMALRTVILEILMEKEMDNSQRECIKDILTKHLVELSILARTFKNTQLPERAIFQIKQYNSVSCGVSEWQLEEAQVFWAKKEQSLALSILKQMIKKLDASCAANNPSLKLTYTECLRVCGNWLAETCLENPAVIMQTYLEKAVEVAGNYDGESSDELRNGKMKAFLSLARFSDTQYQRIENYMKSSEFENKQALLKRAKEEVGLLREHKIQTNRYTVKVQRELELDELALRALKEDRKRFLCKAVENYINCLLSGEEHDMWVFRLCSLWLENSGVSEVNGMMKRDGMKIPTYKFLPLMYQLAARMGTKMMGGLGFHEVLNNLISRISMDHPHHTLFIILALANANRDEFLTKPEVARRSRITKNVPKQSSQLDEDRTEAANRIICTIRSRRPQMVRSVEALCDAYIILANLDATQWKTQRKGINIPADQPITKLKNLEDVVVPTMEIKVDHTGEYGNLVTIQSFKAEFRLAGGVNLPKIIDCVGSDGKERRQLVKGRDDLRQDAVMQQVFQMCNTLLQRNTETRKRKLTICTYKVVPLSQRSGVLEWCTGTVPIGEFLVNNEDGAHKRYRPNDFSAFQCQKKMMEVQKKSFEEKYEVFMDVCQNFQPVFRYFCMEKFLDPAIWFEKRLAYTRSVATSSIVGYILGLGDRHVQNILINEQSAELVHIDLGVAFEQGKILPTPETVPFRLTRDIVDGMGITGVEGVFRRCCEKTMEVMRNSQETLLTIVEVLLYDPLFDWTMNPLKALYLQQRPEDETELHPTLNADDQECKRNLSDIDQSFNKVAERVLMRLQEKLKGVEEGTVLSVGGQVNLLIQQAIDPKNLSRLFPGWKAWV

Row | IC50 (ATM; [1]) | IC50 (DNA-PK; 20 μM ATP) | IC50 (ATM; [2]) | IC50 (DNA-PK; ATP 20 μM) | SMILES
1 | 1 to 100 nM | 1 to 100 nM |  |  | CN(C)CCCOc1ncc(-c2ccc3ncc4c(c3c2)C2(CN(C)C2)C(=O)N4C)cc1NS(C)(=O)=O [Example 478, N-(5-(1,3′-Dimethyl-2′-oxo-2′,3′-dihydrospiro[azetidine-3,1′-pyrrolo[2,3-c]quinolin]-8′-yl)-2-(3-(dimethylamino)propoxy)pyridin-3-yl)methanesulfonamide]
2 | > 100 nM | 1 to 100 nM |  |  | CC(C)NCCOc1ncc(-c2cc3c(cc2F)ncc2c3[C@]3(C[C@H](c4cccc(=O)[nH]4)C3)C(=O)N2C)cc1NS(C)(=O)=O [Example 440, cis-N-(5-(7′-Fluoro-3′-methyl-2′-oxo-3-(6-oxo-1,6-dihydropyridin-2-yl)-2′,3′-dihydrospiro[cyclobutane-1,1′-pyrrolo[2,3-c]quinolin]-8′-yl)-2-(2-(isopropylamino)ethoxy)pyridin-3-yl)methanesulfonamide]
3 | 1 to 100 nM | 1 to 100 nM |  |  | Cc1cccc(N2CC3(C2)C(=O)N(C)c2cnc4cc(F)c(-c5cnc(OCCNC(C)C)c(NS(C)(=O)=O)c5)cc4c23)c1 [Example 527, N-(5-(7′-Fluoro-3′-methyl-2′-oxo-1-(m-tolyl)-2′,3′-dihydrospiro[azetidine-3,1′-pyrrolo[2,3-c]quinolin]-8′-yl)-2-(2-(isopropylamino)ethoxy)pyridin-3-yl)methanesulfonamide]
4 | > 100 nM | 1 to 100 nM |  |  | CC(C)NCCOc1ncc(-c2cc3c(cc2F)ncc2c3[C@]3(C[C@@H](c4ccccn4)C3)C(=O)N2C)cc1NS(C)(=O)=O [Example 435, trans-N-(5-(7′-Fluoro-3′-methyl-2′-oxo-3-(pyridin-2-yl)-2′,3′-dihydrospiro[cyclobutane-1,1′-pyrrolo[2,3-c]quinolin]-8′-yl)-2-(2-(isopropylamino)ethoxy)pyridin-3-yl)methanesulfonamide]
5 | 1 to 100 nM | 1 to 100 nM |  |  | CC(C)NCCOc1ncc(-c2cc3c4c(cnc3cc2F)N(C)C(=O)C42CN(c3ccc(-c4ccccc4)cc3)C2)cc1NS(C)(=O)=O [Example 543, N-(5-(1-([1,1′-Biphenyl]-4-yl)-7′-fluoro-3′-methyl-2′-oxo-2′,3′-dihydrospiro[azetidine-3,1′-pyrrolo[2,3-c]quinolin]-8′-yl)-2-(2-(isopropylamino)ethoxy)pyridin-3-yl)methanesulfonamide]
6 | 1 to 100 nM | 0.5 to 1 nM |  |  | CC(C)NCCOc1ncc(-c2cc3c4c(cnc3cc2F)N(C)C(=O)C42CN(c3ccc4c(c3)OCCO4)C2)cc1NS(C)(=O)=O [Example 545, N-(5-(1-(2,3-Dihydrobenzo[b][1,4]dioxin-6-yl)-7′-fluoro-3′-methyl-2′-oxo-2′,3′-dihydrospiro[azetidine-3,1′-pyrrolo[2,3-c]quinolin]-8′-yl)-2-(2-(isopropylamino)ethoxy)pyridin-3-yl)methanesulfonamide]
7 | 1 to 100 nM | 1 to 100 nM |  |  | CCc1ccc(N2CC3(C2)C(=O)N(C)c2cnc4cc(F)c(-c5cnc(OCCNC(C)C)c(NS(C)(=O)=O)c5)cc4c23)cc1 [Example 529, N-(5-(1-(4-Ethylphenyl)-7′-fluoro-3′-methyl-2′-oxo-2′,3′-dihydrospiro[azetidine-3,1′-pyrrolo[2,3-c]quinolin]-8′-yl)-2-(2-(isopropylamino)ethoxy)pyridin-3-yl)methanesulfonamide]

More lines, now with the values behind:

Row | SMILES | IC50 (ATM; [1]) | IC50 (DNA-PK; 20 μM ATP) | IC50 (ATM; [2]) | IC50 (DNA-PK; ATP 20 μM)
8 | Cc1ccc(S(=O)(=O)Nc2cc(-c3ccc4ncc5c(c4c3)C3(CCC3)C(=O)N5C)cnc2N2CCC(N3CCOCC3)CC2)cc1 [Example 167, 4-Methyl-N-(5-(3′-methyl-2′-oxo-2′,3′-dihydrospiro[cyclobutane-1,1′-pyrrolo[2,3-c]quinolin]-8′-yl)-2-(4-morpholinopiperidin-l-yl)pyridin-3-yl)benzenesulfonamide hydrochloride] |  |  | 1 to 100 nM | 1 to 100 nM
9 | CN(C)CCCOc1ncc(-c2ccc3ncc4c(c3c2)C2(CCOCC2)C(=O)N4C)cc1NS(=O)(=O)c1ccccc1 [Example 33, N-(2-(3-(Dimethylamino)propoxy)-5-(3′-methyl-2′-oxo-2,2′,3′-,3′-,5,6-hexahydrospiro[pyran-4,1′-pyrrolo[2,3-c]quinolin]-8′-yl)pyridin-3-yl)benzenesulfonamide] |  |  | 1 to 100 nM | 1 to 100 nM
10 | CCN1C(=O)C2(CC2)c2c1cnc1ccc(-c3cnc(OCCCN(C)C)c(NS(=O)(=O)c4ccccc4)c3)cc21 [Example 42, N-(2-(3-(Dimethylamino)propoxy)-5-(3′-ethyl-2′-oxo-2′,3′-dihydrospiro [cyclopropane-1,1′-pyrrolo[2,3-c]quinolin]-8′-yl)pyridin-3-yl)benzenesulfonamide] |  |  | 1 to 100 nM | 0.5 to 1 nM
11 | CC(C)NCCOc1ncc(-c2cc3c4c(cnc3cc2F)N(C)C(=O)C42CCC2)cc1NS(=O)(=O)C(C)(C)C [Example 366, N-(5-(7′-Fluoro-3′-methyl-2′-oxo-2′,3′-dihydrospiro[cyclobutane-1,1′-pyrrolo[2,3-c]quinolin]-8′-yl)-2-(2-(isopropylamino)ethoxy)pyridin-3-yl)-2-methylpropane-2-sulfonamide] | 1 to 100 nM | 0.5 to 1 nM |  | 
12 | CNCCCOc1ncc(-c2ccc3ncc4c(c3c2)C2(CCC2)C(=O)N4C)cc1NS(C)(=O)=O [Example 240, N-(5-(3′-Methyl-2′-oxo-2′,3′-dihydrospiro[cyclobutane-1,1′-pyrrolo[2,3-c]quinolin]-8′-yl)-2-(3-(methylamino)propoxy)pyridin-3-yl) methanesulfonamide formate] |  |  | 1 to 100 nM | < 0.5 nM
13 | CN1C(=O)C2(CC2)c2c1cnc1ccc(-c3cnc(OCCC4CCCN4C)c(NS(=O)(=O)c4ccccc4)c3)cc21 (stereo not shown) [Example 78, N-(5-(3′-Methyl-2′-oxo-2′,3′-dihydrospiro[cyclopropane-1,1′-pyrrolo[2,3-c]quinolin]-8′-yl)-2-(2-(1-methylpyrrolidin-2-yl)ethoxy)pyridin-3-yl)benzenesulfonamide] |  |  | 1 to 100 nM | 1 to 100 nM
14 | CN1C(=O)C2(CCC2)c2c1cnc1ccc(-c3cnc(N4CCC(N(C)C)CC4)c(NS(C)(=O)=O)c3)cc21 [Example 224, N-(2-(4-(Dimethylamino)piperidin-1-yl)-5-(3′-methyl-2′-oxo-2′,3′-dihydrospiro[cyclobutane-1,1′-pyrrolo[2,3-c]quinolin]-8′-yl)pyridin-3-yl)methanesulfonamide] |  |  | 1 to 100 nM | < 0.5 nM
15 | CN(C)CCCOc1ncc(-c2ccc3ncc4c(c3c2)C2(CC2)C(=O)N4Cc2cn[nH]c2)cc1NS(=O)(=O)c1ccccc1 [Example 30, N-(5-(3′-((1H-Pyrazol-4-yl)methyl)-2′-oxo-2′,3′-dihydrospiro[cyclopropane-1,1′-pyrrolo[2,3-c]quinolin]-8′-yl)-2-(3-(dimethylamino)propoxy)pyridin-3-yl)benzenesulfonamide] |  |  | 1 to 100 nM | 1 to 100 nM
16 | CN1C(=O)C2(CCC2)c2c1cnc1ccc(-c3cnc(OCCNC(C)(C)C)c(NS(C)(=O)=O)c3)cc21 [Example 309] |  |  | 1 to 100 nM | 0.5 to 1 nM
17 | CO[C@H]1C[C@]2(C1)C(=O)N(C)c1cnc3cc(F)c(-c4cnc(OCCNC(C)C)c(NS(=O)(=O)C5CC5)c4)cc3c12 [Example 387, cis-N-(5-(7′-Fluoro-3-methoxy-3′-methyl-2′-oxo-2′,3′-dihydrospiro[cyclobutane-1,1′-pyrrolo[2,3-c]quinolin]-8′-yl)-2-(2-(isopropylamino)ethoxy)pyridin-3-yl)cyclopropanesulfonamid] | 1 to 100 nM | 1 to 100 nM |  | 
